The numbers were not newly measured in US20250009787A1, “Nitric Oxide Containing Foam Formulation for Topical Medical Use” (NOxy Health Products, Inc., priority 2023, published 2025), which cites them from elsewhere.

One data set has as its system leg abscesses. To be noted: 200 ppm NO gas, average of 8.1 hours, 14 consecutive nights.
For data set [1] the following is noted: reported to be toxic at higher concentration.

Where only a bound is given, the exact number is not on record here.

In the case of Nitric oxide [NO gas], the lesion size entry in the data set on leg abscesses is “significantly reduced in size”. Also, in data set [1], the “toxic concentration (exposure)” value is more than 200 ppm.
